Measurements as given in patent US12583858B2 (Genentech, Inc., priority 2015, dated 2026).

Target: T1, TDO2 (Homo sapiens, UniProt P48775)
T1 construct: decreased levels of NFK in SW48 cells (high TDO expressing cells)
Experiment: TDO2 cell assay (NFK GreenScreen, SW48 cells)
Assay type: cell-based
Conditions: SW48 cells (high TDO expressing), 200 uM tryptophan, 24 hours; Table 3; read-out: TDO2 Cell Fluor EC50

T1 sequence (P48775 whole entry): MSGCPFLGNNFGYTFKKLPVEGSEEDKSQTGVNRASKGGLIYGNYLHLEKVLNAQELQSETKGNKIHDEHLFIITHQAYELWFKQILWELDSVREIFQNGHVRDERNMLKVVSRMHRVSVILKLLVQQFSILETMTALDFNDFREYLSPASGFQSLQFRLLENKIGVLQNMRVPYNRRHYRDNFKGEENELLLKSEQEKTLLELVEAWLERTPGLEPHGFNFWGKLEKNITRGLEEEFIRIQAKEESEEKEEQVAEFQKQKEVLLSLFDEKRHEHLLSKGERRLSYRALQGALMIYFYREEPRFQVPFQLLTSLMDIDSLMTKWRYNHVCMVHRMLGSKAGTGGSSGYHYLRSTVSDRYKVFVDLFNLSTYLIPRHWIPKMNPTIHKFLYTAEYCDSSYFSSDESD

Row | Compound | EC50 [µM]
1 | Nc1ccc2c(n1)CCC(C1c3ccccc3-c3cncn31)C2O (single isomer, unassigned) [Example 121a] | 0.84
2 | Nc1ccc2c(n1)CCC(C1c3ccccc3-c3cncn31)C2O (single isomer, unassigned) [Example 121b] | > 25
3 | Nc1ccc2c(n1)CCC(C1c3ccccc3-c3cncn31)C2O (single isomer, unassigned) [Example 121c] | 0.22
4 | Nc1ccc2c(n1)CCC(C1c3ccccc3-c3cncn31)C2O (single isomer, unassigned) [Example 121d] | 17
5 | Nc1ccc2c(n1)CCC(C1c3ccccc3-c3cncn31)C2O (single isomer, unassigned) [Example 121e] | 16
6 | Nc1ccc2c(n1)CCC(C1c3ccccc3-c3cncn31)C2O (single isomer, unassigned) [Example 121f] | 24
7 | Nc1ccc2c(n1)CCC(C1c3ccccc3-c3cncn31)C2O (single isomer, unassigned) [Example 121g] | > 25
8 | Nc1ccc2c(n1)CCC(C1c3ccccc3-c3cncn31)C2O (single isomer, unassigned) [Example 121h] | 4.8
9 | NC(=O)c1ccc2c(c1)C(O)C(C1c3ccccc3-c3cncn31)CC2 (single isomer, unassigned) [Example 122b] | 12
10 | NC(=O)c1ccc2c(c1)C(O)C(C1c3ccccc3-c3cncn31)CC2 (single isomer, unassigned) [Example 122c] | 23
11 | NC(=O)c1ccc2c(c1)C(O)C(C1c3ccccc3-c3cncn31)CC2 (single isomer, unassigned) [Example 122d] | 0.37
12 | NC(=O)c1ccc2c(c1)C(O)C(C1c3ccccc3-c3cncn31)CC2 (single isomer, unassigned) [Example 122e] | 0.09
13 | NC(=O)c1ccc2c(c1)C(O)C(C1c3ccccc3-c3cncn31)CC2 (single isomer, unassigned) [Example 122f] | 0.91
14 | O[C@@H]1c2nccnc2CC[C@H]1[C@H]1c2ccccc2-c2cncn21 (single isomer, unassigned) [Example 123a] | 24
15 | O[C@@H]1c2nccnc2CC[C@H]1[C@H]1c2ccccc2-c2cncn21 (single isomer, unassigned) [Example 123b] | 0.23
16 | Cc1ncc2c(n1)CCC(C1c3ccccc3-c3cncn31)C2O (single isomer, unassigned) [Example 124a] | 16
17 | Cc1ncc2c(n1)CCC(C1c3ccccc3-c3cncn31)C2O (single isomer, unassigned) [Example 124b] | 0.29
18 | O[C@@H]1c2ncccc2CC[C@H]1[C@H]1c2ccccc2-c2cncn21 (single isomer, unassigned) [Example 126a] | > 25
19 | O[C@@H]1c2ncccc2CC[C@H]1[C@H]1c2ccccc2-c2cncn21 (single isomer, unassigned) [Example 126b] | 0.083
20 | CC(C)(C)OC(=O)N1CCCC(O)(C2c3ccccc3-c3cncn32)C1 (single isomer, unassigned) [Example 127a] | 3.7
21 | CC(C)(C)OC(=O)N1CCCC(O)(C2c3ccccc3-c3cncn32)C1 (single isomer, unassigned) [Example 127b] | 0.89
22 | CC(C)(C)OC(=O)N1CCCC(O)(C2c3ccccc3-c3cncn32)C1 (single isomer, unassigned) [Example 127c] | 0.76
23 | OC1(C2c3ccccc3-c3cncn32)CCOC1 (single isomer, unassigned) [Example 129a] | > 25

Row | Compound | EC50 [µM]
24 | OC1(C2c3ccccc3-c3cncn32)CCOC1 (single isomer, unassigned) [Example 129b] | 17
25 | OC1(C2c3ccccc3-c3cncn32)CCOC1 (single isomer, unassigned) [Example 129c] | 4.5
26 | OC1(C2c3ccccc3-c3cncn32)CCOC1 (single isomer, unassigned) [Example 129d] | 2.6
27 | Cn1cc2c(n1)CCC(C1c3ccccc3-c3cncn31)C2O (single isomer, unassigned) [Example 130a] | 1.5
28 | Cn1cc2c(n1)CCC(C1c3ccccc3-c3cncn31)C2O (single isomer, unassigned) [Example 130b] | 0.65
29 | Cn1cc2c(n1)CCC(C1c3ccccc3-c3cncn31)C2O (single isomer, unassigned) [Example 130c] | > 25
30 | Cn1cc2c(n1)CCC(C1c3ccccc3-c3cncn31)C2O (single isomer, unassigned) [Example 130e] | 3.1
31 | Cn1cc2c(n1)CCC(C1c3ccccc3-c3cncn31)C2O (single isomer, unassigned) [Example 130f] | 1.2
32 | Cn1cc2c(n1)CCC(C1c3ccccc3-c3cncn31)C2O (single isomer, unassigned) [Example 130g] | 4.5
33 | Cn1cc2c(n1)CCC(C1c3ccccc3-c3cncn31)C2O (single isomer, unassigned) [Example 130h] | > 25
34 | OC1c2ccnn2CCCC1C1c2ccccc2-c2cncn21 (single isomer, unassigned) [Example 133a] | > 25
35 | OC1c2ccnn2CCCC1C1c2ccccc2-c2cncn21 (single isomer, unassigned) [Example 133b] | 0.94
36 | OC1c2ccnn2CCCC1C1c2ccccc2-c2cncn21 (single isomer, unassigned) [Example 133c] | 6
37 | OC1c2ccnn2CCCC1C1c2ccccc2-c2cncn21 (single isomer, unassigned) [Example 133d] | > 25
38 | OC1c2ccnn2CCCC1C1c2ccccc2-c2cncn21 (single isomer, unassigned) [Example 133e] | 0.28
39 | OC1c2ccnn2CCCC1C1c2ccccc2-c2cncn21 (single isomer, unassigned) [Example 133f] | > 25
40 | OC1c2ccnn2CCCC1C1c2ccccc2-c2cncn21 (single isomer, unassigned) [Example 133g] | 3
41 | OC1c2ccnn2CCCC1C1c2ccccc2-c2cncn21 (single isomer, unassigned) [Example 133h] | > 25
42 | CC(C)C(O)C1c2ccc(F)cc2-c2cncn21 (single isomer, unassigned) [Example 135a] | > 25
43 | CC(C)C(O)C1c2ccc(F)cc2-c2cncn21 (single isomer, unassigned) [Example 135c] | 3
44 | CC(C)C(O)C1c2ccc(F)cc2-c2cncn21 (single isomer, unassigned) [Example 135d] | 0.13
45 | OC1c2cccn2CCC1C1c2ccccc2-c2cncn21 (single isomer, unassigned) [Example 136c] | 6.7
46 | OC1c2cccn2CCC1C1c2ccccc2-c2cncn21 (single isomer, unassigned) [Example 136d] | 15

Row | Compound | EC50 [µM]
47 | OC1c2cccn2CCC1C1c2ccccc2-c2cncn21 (single isomer, unassigned) [Example 136e] | 0.64
48 | OC1c2cccn2CCC1C1c2ccccc2-c2cncn21 (single isomer, unassigned) [Example 136g] | 0.2
49 | CCC(O)C1c2ccccc2-c2cncn21 (single isomer, unassigned) [Example 137a] | > 25
50 | CCC(O)C1c2ccccc2-c2cncn21 (single isomer, unassigned) [Example 137c] | 0.2
51 | O[C@@H](C1CCOCC1)[C@H]1c2ccccc2-c2cncn21 (single isomer, unassigned) [Example 138b] | > 25
52 | O[C@@H](C1CCOCC1)[C@@H]1c2ccccc2-c2cncn21 (single isomer, unassigned) [Example 138c] | > 25
53 | O[C@@H](C1CCOCC1)[C@@H]1c2ccccc2-c2cncn21 (single isomer, unassigned) [Example 138d] | 10
54 | Cn1cc2c(n1)C(O)C(C1c3ccccc3-c3cncn31)CC2 (single isomer, unassigned) [Example 139-1a] | 5.3
55 | Cn1cc2c(n1)C(O)C(C1c3ccccc3-c3cncn31)CC2 (single isomer, unassigned) [Example 139-1b] | > 25
56 | Cn1cc2c(n1)[C@@H](O)[C@@H]([C@@H]1c3ccccc3-c3cncn31)CC2 (single isomer, unassigned) [Example 139-1c] | > 25
57 | Cn1cc2c(n1)[C@@H](O)[C@@H]([C@@H]1c3ccccc3-c3cncn31)CC2 (single isomer, unassigned) [Example 139-1d] | 0.7
58 | Cn1cc2c(n1)C(O)C(C1c3ccccc3-c3cncn31)CC2 (single isomer, unassigned) [Example 139-1e] | > 25
59 | Cn1cc2c(n1)C(O)C(C1c3ccccc3-c3cncn31)CC2 (single isomer, unassigned) [Example 139-1f] | 0.21
60 | OC1c2cnnn2CCC1C1c2ccccc2-c2cncn21 (single isomer, unassigned) [Example 139a] | > 25
61 | OC1c2cnnn2CCC1C1c2ccccc2-c2cncn21 (single isomer, unassigned) [Example 139b] | 1
62 | NC(=O)C1CCC(O)(C2c3ccccc3-c3cncn32)CC1 (single isomer, unassigned) [Example 140a] | > 25
63 | NC(=O)C1CCC(O)(C2c3ccccc3-c3cncn32)CC1 (single isomer, unassigned) [Example 140b] | > 25
64 | NC(=O)C1CCC(O)(C2c3ccccc3-c3cncn32)CC1 (single isomer, unassigned) [Example 140c] | > 25
65 | NC(=O)C1CCC(O)(C2c3ccccc3-c3cncn32)CC1 (single isomer, unassigned) [Example 140d] | 3.5
66 | OC1(C2c3ccccc3-c3cncn32)CCCc2ccncc21 (single isomer, unassigned) [Example 141a] | 17
67 | OC1(C2c3ccccc3-c3cncn32)CCCc2ccncc21 (single isomer, unassigned) [Example 141b] | 3.8
68 | OC1(C2c3ccccc3-c3cncn32)CCCc2ccncc21 (single isomer, unassigned) [Example 141c] | > 25
69 | OC1(C2c3ccccc3-c3cncn32)CCCc2ccncc21 (single isomer, unassigned) [Example 141d] | > 25
